Key:
Type in all cases: cell-based
[1] = in vitro
[2] = tested on: trypomastigote forms of Trypanosoma cruzi (Y strain); assay: Trypanocidal assay, bloodstream trypomastigotes, 5% of blood at 4 °C; settings: 24 h, concentration giving 50% lysis of the parasites, mean ± SD of at least three experiments
Protocol: 5% of blood at 4 °C: For all the experiments, stock solutions of the compounds were prepared in dimethyl sulfoxide, with the final concentration of the solvent never exceeding 0.5%, concentration known to exert no toxicity to the parasite or host cells. Bloodstream trypomastigotes of Y strain were obtained from infected Swiss Webster mice at the peak of parasitemia by differential centrifugation process. The parasites (5 × 10^6 parasites per mL) plus 5% of blood were incubated at 4 °C for 24 h in 5% CO2 atmosphere in absence or presence of the compounds. […] At least three independent experiments were performed, and the mean and standard deviation were calculated. The standard drug Bz was used as control.

[3] = tested on: trypomastigote forms of Trypanosoma cruzi (Y strain); assay: Trypanocidal assay, bloodstream trypomastigotes, 0% of blood at 37 °C; settings: 24 h, concentration giving 50% lysis of the parasites, mean ± SD of at least three experiments
Protocol: 0% of blood at 37 °C: The experiments were performed with the Y strain of T. cruzi.^11 Stock solutions of the compounds were prepared in dimethylsulfoxide (DMSO), with the final concentration of the latter in the experiments never exceeding 0.1%. […] Bloodstream trypomastigotes were obtained from infected Albino Swiss mice at the peak of parasitemia by differential centrifugation. The parasites were resuspended to a concentration of 10 × 10^6 cells/mL in DMES medium. This suspension (100 µL) was added to the same volume of each of the compounds, which had been previously prepared at twice the desired final concentrations. The incubation was performed in 96-well microplates (Nunc Inc., Rochester, USA) at 37 °C for 24 h. Benznidazole (Lafepe, Brazil), the standard drug for treatment of chagasic patients, was used as control.

| SMILES | CC50 at 24 h [1] | IC50 [2] | IC50 [3] |
| --- | --- | --- | --- |
| Cc1ccc(C2=CC(=O)c3ccccc3C2=O)cc1 [3a] | 24.6 ± 3.2 µM | 36.3 ± 2.9 µM |  |
| Cc1cccc(C2=CC(=O)c3ccccc3C2=O)c1 [3b] | 14.3 ± 0.5 µM | 38.4 ± 1.3 µM |  |
| Cc1cc(C)cc(C2=CC(=O)c3ccccc3C2=O)c1 [3c] |  | 219 ± 13.4 µM |  |
| O=C1C=C(c2ccccc2)C(=O)c2ccccc21 [3d] | 9.4 ± 2.2 µM | 25.2 ± 2.8 µM | 2.11 ± 0.1 µM |
| COc1ccc(C2=CC(=O)c3ccccc3C2=O)cc1 [3e] | 34 ± 0.5 µM | 47.6 ± 0.6 µM |  |
| COc1cccc(C2=CC(=O)c3ccccc3C2=O)c1 [3f] | 8.3 ± 1.3 µM | 30.7 ± 2.5 µM | 3.85 ± 0.01 µM |
| O=C1C=C(c2ccc(C(F)(F)F)cc2)C(=O)c2ccccc21 [3g] | 6.8 ± 0.2 µM | 30.6 ± 2.1 µM |  |
| COC(=O)c1ccc(C2=CC(=O)c3ccccc3C2=O)cc1 [3h] | 30.6 ± 1 µM | 45.9 ± 4.3 µM |  |
| Cc1cc([N+](=O)[O-])ccc1C1=CC(=O)c2ccccc2C1=O [3i] | 6.8 ± 0.6 µM | 39.5 ± 4.1 µM |  |
| COc1ccc(C2=CC(=O)c3ccccc3C2=O)c([N+](=O)[O-])c1 [3j] |  | 86.1 ± 7.2 µM |  |
| COc1cc2c(cc1OC)C(=O)C(c1ccc(C)cc1)=CC2=O [3k] |  | 83.3 ± 4.8 µM |  |
| Cc1ccc(C2=CC(=O)c3c(O)cccc3C2=O)cc1 [3l] | 4.8 ± 0.9 µM | 14.4 ± 2.1 µM | 0.31 ± 0.04 µM |
| O=C1C(c2ccccc2)=CC(=O)c2c(O)cccc21 [3m] | < 3.9 µM | 12.7 ± 0.1 µM | 0.34 ± 0.03 µM |
| O=C1C=C(c2ccccc2)C(=O)c2c(O)cccc21 [3n] | 6.4 ± 0.5 µM | 13.7 ± 1.1 µM | 0.69 ± 0.03 µM |
| Cc1cc(C)cc(C2=CC(=O)c3cc4ccccc4cc3C2=O)c1 [3p] |  | > 250 µM |  |
| O=C1C=C(c2ccccc2)C(=O)c2cc3ccccc3cc21 [3q] |  | > 250 µM |  |
| Cc1ccc(C2=CC(=O)C=C(c3ccc(C)cc3)C2=O)cc1 [3v] |  | 233 ± 12.4 µM |  |
